Laboratory results: US20210332073A1, “PROCESS FOR THE PREPARATION OF FERRIC CITRATE” (priority 2020, published 2021)
Counter-ions that a name gives are not always drawn.

Assay: Specific surface area of isolated ferric citrate
Type: physicochemical
Details: vacuum dried at 30-40° C.

Row | Structure (SMILES) | specific surface area (Method B: two lots combined, sieve BSS 200/75 micron) | specific surface area (Method A step c: acetone dumped in one lot, 20 mesh sieve)
1 | O=C1CC2(O)CC(=O)[O][Fe]([O]1)[O]C2=O [Example-3, ferric citrate] | above 16 sq. m/g | 
2 | O=C1CC2(O)CC(=O)[O][Fe]([O]1)[O]C2=O [Ferric citrate, iron (+3), x (1,2,3-propanetricarboxylic acid, 2-hydroxy-), y (H2O)] |  | above 20 m^2/g
